{"source": "paper PMC9785688", "about": "(Pharmaceutics, 2022)", "key": {"[1]": {"target": "T1, P-glycoprotein (P-gp) function at the blood-brain barrier (BBB) (Rattus norvegicus, UniProt Q6PSM0)", "T1 construct": "Kinetic modeling was performed to estimate the impact of these drugs on P-gp function at the BBB; from tissue; host or cells: blood-brain barrier (brain) of living Sprague Dawley rats, in vivo PET", "T1 sequence (Q6PSM0 1-1272)": "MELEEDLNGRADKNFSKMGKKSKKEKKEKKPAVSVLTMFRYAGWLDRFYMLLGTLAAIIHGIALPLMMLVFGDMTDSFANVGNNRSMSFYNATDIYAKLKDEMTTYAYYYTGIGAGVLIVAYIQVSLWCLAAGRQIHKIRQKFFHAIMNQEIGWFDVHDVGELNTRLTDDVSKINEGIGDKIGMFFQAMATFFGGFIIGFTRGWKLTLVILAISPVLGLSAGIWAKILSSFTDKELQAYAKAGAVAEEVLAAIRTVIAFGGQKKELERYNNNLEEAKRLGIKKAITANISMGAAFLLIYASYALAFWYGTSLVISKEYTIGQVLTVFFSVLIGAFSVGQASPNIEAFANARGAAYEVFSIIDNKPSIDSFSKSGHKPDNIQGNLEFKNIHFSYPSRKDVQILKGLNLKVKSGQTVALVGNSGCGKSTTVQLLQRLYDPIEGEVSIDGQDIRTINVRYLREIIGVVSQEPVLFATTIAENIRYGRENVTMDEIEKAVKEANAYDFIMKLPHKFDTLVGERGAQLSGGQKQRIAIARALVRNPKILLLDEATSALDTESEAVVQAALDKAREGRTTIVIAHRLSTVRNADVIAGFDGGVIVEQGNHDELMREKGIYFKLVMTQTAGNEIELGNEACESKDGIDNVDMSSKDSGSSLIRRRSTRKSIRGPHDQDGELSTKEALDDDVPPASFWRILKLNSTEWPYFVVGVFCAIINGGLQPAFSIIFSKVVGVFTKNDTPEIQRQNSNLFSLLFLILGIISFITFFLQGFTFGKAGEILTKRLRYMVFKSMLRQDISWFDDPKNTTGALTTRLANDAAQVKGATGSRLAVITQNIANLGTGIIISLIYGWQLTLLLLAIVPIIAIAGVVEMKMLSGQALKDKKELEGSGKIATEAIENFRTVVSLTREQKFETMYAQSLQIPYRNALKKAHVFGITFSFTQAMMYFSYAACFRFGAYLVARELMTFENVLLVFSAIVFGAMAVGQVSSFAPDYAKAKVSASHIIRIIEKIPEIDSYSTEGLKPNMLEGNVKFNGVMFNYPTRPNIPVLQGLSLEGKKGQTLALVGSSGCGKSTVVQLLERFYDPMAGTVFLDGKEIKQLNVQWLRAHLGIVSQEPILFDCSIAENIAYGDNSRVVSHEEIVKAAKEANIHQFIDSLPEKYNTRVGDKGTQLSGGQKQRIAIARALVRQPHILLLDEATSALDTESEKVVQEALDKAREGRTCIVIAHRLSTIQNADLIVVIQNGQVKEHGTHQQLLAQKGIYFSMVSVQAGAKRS", "assay": "[^11C]metoclopramide brain PET imaging with kinetic modelling (Logan plot) in rats", "assay_type": "in vivo", "conditions": "oral pretreatment of healthy Sprague Dawley rats (CBZ 45 mg/kg twice a day for 7 days; RIT 20 mg/kg 3 h before PET)", "procedure": "In animals of the CBZ group (n = 4), CBZ suspension was administered by oral gavage at a dose of 45 mg/kg, twice a day (8 A.M and 5 P.M) for 7 days before the PET imaging. Each animal received a total of 14 doses of CBZ before the PET experiment.\nA RIT suspension (10 mg/mL) was freshly prepared prior to oral administration by adding 100 mg of RIT powder to 9.4 mL of water for injection. Animals of the RIT group (n = 4) received a single dose of 20 mg/kg of RIT 3 hours before the PET experiment.\nPET acquisitions were performed in Baseline, CBZ and RIT pretreated animals (n = 4 per condition) using an Inveon microPET scanner (Siemens, Knoxville, TN, USA). Anesthesia was induced and thereafter maintained using 3.5% and 1.5–2.5% isoflurane in O2, respectively.\nImages were reconstructed with the Fourier rebinning algorithm and the 3-dimensional ordered-subset expectation-maximization algorithm, including normalization, attenuation, scatter, and random corrections. […] Radioactivity was corrected for ^11C decay and expressed as standardized uptake value (SUV, unitless) after correction for injected dose and animal weight. […]\nKinetic modeling was also performed using PMOD software. […] Each individual IDIF was corrected by a group-specific, average whole-blood/plasma radioactivity ratio which was obtained from the arterial blood samples collected in the separate groups of animals (see above)."}, "P-gp": {"tested_on": "P-gp", "conditions": "cited from earlier work"}, "[2]": {"conditions": "rodents, at 30 min, microdose; cited from earlier work"}, "[3]": {"design": "method as in PMID 30630940", "conditions": "humans, at 30 min, microdose; cited from earlier work"}}, "note": "Read-outs that look alike come from different tables or passages of the source."}
{"smiles": "NC(=O)N1c2ccccc2C=Cc2ccccc21", "note": "[CBZ, carbamazepine]", "values": [{"measurement": "Effect on P-gp function at the BBB (from [^11C]metoclopramide PET)", "setting": "[1]", "result": "does not substantially induce or inhibit"}]}
{"smiles": "CC(C)c1nc(CN(C)C(=O)N[C@H](C(=O)N[C@@H](Cc2ccccc2)C[C@H](O)[C@H](Cc2ccccc2)NC(=O)OCc2cncs2)C(C)C)cs1", "note": "[RIT, ritonavir]", "values": [{"measurement": "P-gp inhibition in vitro", "setting": "P-gp", "result": "potent P-gp inhibitor"}, {"measurement": "Effect on P-gp function at the BBB (from [^11C]metoclopramide PET)", "setting": "[1]", "result": "apparently behaving as an inhibitor"}]}
{"smiles": "CCN(CC)CCNC(=O)c1cc(Cl)c(N)cc1O[11CH3]", "note": "[[^11C]metoclopramide]", "values": [{"measurement": "Fraction of parent [^11C]metoclopramide", "setting": "[2]", "result": "~ 10%"}, {"measurement": "Fraction of parent [^11C]metoclopramide", "setting": "[3]", "result": "~ 60%"}]}
